# Experimental data reported in patent US8431564B2 (Merck Sharp & Dohme B.V., priority 2009, dated 2013).
# Biological target: T1, human FSH receptor (Homo sapiens, UniProt P23945)
# T1 construct: expressed in transfected cells; host or cells: CHO (Chinese Hamster Ovary) cells, stably transfected, cotransfected with CRE-luciferase reporter
# T1 sequence (P23945 18-695): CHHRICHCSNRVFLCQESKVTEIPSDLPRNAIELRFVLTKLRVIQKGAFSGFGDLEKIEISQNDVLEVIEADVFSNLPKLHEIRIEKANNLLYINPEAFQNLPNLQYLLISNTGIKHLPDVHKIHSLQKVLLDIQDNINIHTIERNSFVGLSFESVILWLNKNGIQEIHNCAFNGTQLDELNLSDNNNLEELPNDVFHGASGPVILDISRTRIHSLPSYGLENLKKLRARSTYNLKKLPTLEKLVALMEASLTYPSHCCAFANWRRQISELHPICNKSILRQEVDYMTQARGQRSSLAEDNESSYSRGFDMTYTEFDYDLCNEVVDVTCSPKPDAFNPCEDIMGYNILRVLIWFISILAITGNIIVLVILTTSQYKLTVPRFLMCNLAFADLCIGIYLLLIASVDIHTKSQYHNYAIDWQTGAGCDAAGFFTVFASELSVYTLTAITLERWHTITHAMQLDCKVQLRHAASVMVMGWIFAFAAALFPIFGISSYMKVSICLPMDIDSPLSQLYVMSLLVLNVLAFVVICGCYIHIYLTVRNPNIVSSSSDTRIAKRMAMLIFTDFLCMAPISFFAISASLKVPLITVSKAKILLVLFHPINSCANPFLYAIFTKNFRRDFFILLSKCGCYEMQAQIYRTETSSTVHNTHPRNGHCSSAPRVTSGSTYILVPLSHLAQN
# Assay: Agonistic activity at the human FSH receptor expressed in CHO cells (CRE-luciferase reporter)
# Format: cell-based
# Conditions: CHO cells stably transfected with human FSH receptor and CRE/luciferase reporter; 4 hours incubation; pEC50 is -log EC50; read-out: hFSHRago (CHO luc) pEC50 (converted)
# Excerpt: The term EC50 means the concentration of the test compound that elicits half-maximal (50%) stimulation compared to the compound's maximally attainable effect. pEC50 is the negative log of EC50. The values can be determined e.g. in a cell line transfected with a FSH receptor gene and cotransfected with a cAMP responsive element/promoter directing the expression of a reporter gene. For the determination a software program such as MathIQ (version 2.0, ID Business Solutions Limited) can be used.
# Agonistic activity of the compounds at the human FSH receptor was determined in Chinese Hamster Ovary (CHO) cells stably transfected with the human FSH receptor and cotransfected with a cAMP responsive element (CRE)/promotor directing the expression of a firefly luciferase reporter gene. Binding of the compounds to the Gs protein-coupled FSH receptor will result in an increase of cAMP, which in turn will induce an increased transactivation of the luciferase reporter. Cells (7,500 cells/well of a 384 well plate) were incubated in Dulbecco' minimal essential F12 modified medium (Invitrogen), supplemented with 1 μg/ml bovine insulin, 5 μg/ml human apo-transferrin, 80 U/ml penicillin G and 80 μg/ml streptomycin with the test compounds (concentration between 0.0316 nM and 10.0 μM) in duplicate in a humidified atmosphere (95%) at 5-7% CO2 and 37° C. The final concentration of DMSO was 1%. After 4 hours of incubation, plates were allowed to adjust to room temperature for 1 hour. Then, Luclite (PerkinElmer) solution was added to the wells and cells were allowed to lyse for at least 1 hour at room temperature. Subsequently, luciferase activity was measured in a luminescence counter. The signal is expressed as counts per second (cps). The EC50 (concentration of the test compound that elicits half-maximal (50%) luciferase stimulation compared to the compound's maximally attainable effect) and efficacy values (maximal effect of the test compound as percentage of the maximal effect of recombinant human FSH) of the compounds were determined using the software program MathIQ (version 2.0, ID Business Solutions Limited). pEC50 data (pEC50 is −log EC50) are indicated at the synthesis examples.
row,Compound,EC50 [nM]
1,"COc1cc2c(cc1-c1cccc(F)n1)-c1c(-c3cncs3)c3c(n1CC2)C(=O)N(C(C)(C)C)CCOC3 [Compound 11k, 9-tert-butyl-2-(6-fluoropyridin-2-yl)-3-methoxy-14-(1,3-thiazol-5-yl)-5,6,10,11-tetrahydro-9H-[1,4]oxazocino[7′,6′:4,5]pyrrolo[2,1-a]isoquinolin-8(13H)-one]",13.8
2,"COc1cc2c(cc1-c1cncs1)-c1c(-c3cncs3)c3c(n1CC2)C(=O)N(C(C)(C)C)CCOC3 [Compound 11l, 9-tert-butyl-3-methoxy-2,14-di-1,3-thiazol-5-yl-5,6,10,11-tetrahydro-9H-[1,4]oxazocino[7′,6′:4,5]pyrrolo[2,1-a]isoquinolin-8(13H)-one]",12.6
3,"COc1cc2c(cc1-c1cccnc1)-c1c(-c3cccs3)c3c(n1CC2)C(=O)N(C)C(C)(C)CC3 [Compound 12l, 9-methyl-2-pyidin3-yl-3-methoxy-10,10-dimethyl-13-(2-thienyl)-5,6,9,10,11,12-hexahydro-8H-azepino[4′,3′:4,5]pyrrolo[2,1-a]isoquinolin-8-one]",12
4,"COc1cc2c(cc1-c1cccnc1)-c1c(Br)c3c(n1CC2)C(=O)N(C(C)(C)C)CCC3 [Compound 13d, 9-tert-butyl-2-pyridin-3-yl-13-bromo-3-methoxy-5,6,9,10,11,12-hexahydro-8H-azepino[4′,3′:4,5]pyrrolo[2,1-a]isoquinolin-8-one]",380
5,"COc1cc2c(cc1-c1cccnc1)-c1c(-c3cccnc3)c3c(n1CC2)C(=O)N(C(C)(C)C)CCC3 [Compound 13e, 9-tert-butyl-2,13-di-(pyridin3-yl)-3-methoxy-5,6,9,10,11,12-hexahydro-8H-azepino[4′,3′:4,5]pyrrolo[2,1-a]isoquinolin-8-one]",42.7
6,COc1cc2c(cc1-c1cccnc1)-c1c(-c3ncco3)c3c(n1CC2)C(=O)N(C(C)(C)C)CCC3 [Compound 13f],15.8
7,"COc1cc2c(cc1OC(C)C)-c1c(-c3cccs3)c3c(n1CC2)C(=O)N(C(C)C)CCNC3 [Compound 14e, 9-isopropyl-3-methoxy-2-isopropoxy-14-(2-thienyl)-5,6,10,11,12,13-hexahydro[1,4]diazocino[6′,7′:4,5]pyrrolo[2,1-a]isoquinolin-8(9H)-one]",93.3
8,"COc1cc2c(cc1OC(C)C)-c1c(-c3cccs3)c3c(n1CC2)C(=O)N(C(C)C)CCN(C(C)=O)C3 [Compound 14f, 12-acetyl-9-isopropyl-3-methoxy-2-isopropoxy-14-(2-thienyl)-5,6,10,11,12,13-hexahydro[1,4]diazocino[6′,7′:4,5]pyrrolo[2,1-a]isoquinolin-8(9H)-one]",35.5
9,"CCC(=O)N1CCN(C(C)C)C(=O)c2c(c(-c3cccs3)c3n2CCc2cc(OC)c(OC(C)C)cc2-3)C1 [Compound 14g, 12-propanoyl-9-isopropyl-3-methoxy-2-isopropoxy-14-(2-thienyl)-5,6,10,11,12,13-hexahydro[1,4]diazocino[6′,7′:4,5]pyrrolo[2,1-a]isoquinolin-8(9H)-one]",219
10,"COc1cc2c(cc1OC(C)C)-c1c(-c3cccs3)c3c(n1CC2)C(=O)N(C(C)(C)C)C3 [Compound 15f, 9-tert-butyl-2-isopropoxy-3-methoxy-11-(2-thienyl)-5,6,9,10-tetrahydro-8H-pyrrolo[3′,4′:4,5]pyrrolo[2,1-a]isoquinolin-8-one]",617
11,"COc1cc2c(cc1-c1cccnc1)-c1c(-c3cncs3)c3c(n1CC2)C(=O)N(C(C)(C)C)CCCCC3 [Compound 16n, 2-pyridin-3-yl-9-tert-butyl-3-methoxy-15-(1,3-thiazol-5-yl)-5,6,9,10,11,12,13,14-octahydro-8H-azonino[4′,3′:4,5]pyrrolo[2,1-a]isoquinolin-8-one]",16.2
12,"COc1cc2c(cc1-c1cccnc1)-c1c(-c3cscn3)c3c(n1CC2)C(=O)N(C(C)(C)C)CCCCC3 [Compound 16t, 2-pyridin-3-yl-9-tert-butyl-3-methoxy-15-(1,3-thiazol-4-yl)-5,6,9,10,11,12,13,14-octahydro-8H-azonino[4′,3′:4,5]pyrrolo[2,1-a]isoquinolin-8-one]",29.5
13,"COc1cc2c(cc1Br)-c1c(-c3cncs3)c3c(n1CC2)C(=O)N(C(C)(C)C)CCCC3 [Compound 17i, 9-tert-butyl-3-methoxy-2-bromo-14-(1,3-thiazol-5-yl)-5,6,10,11,12,13-hexahydroazocino[4′,3′:4,5]pyrrolo[2,1-a]isoquinolin-8(9H)-one]",4.68
14,"COc1cc2c(cc1-c1ncco1)-c1c(-c3cncs3)c3c(n1CC2)C(=O)N(C(C)(C)C)CCCC3 [Compound 17j, 9-tert-butyl-3-methoxy-2-(1,3-oxazol-2-yl)-14-(1,3-thiazol-5-yl)-5,6,10,11,12,13-hexahydroazocino[4′,3′:4,5]pyrrolo[2,1-a]isoquinolin-8(9H)-one]",0.977
15,"COc1cc2c(cc1-c1cccnc1)-c1c(-c3cncs3)c3c(n1CC2)C(=O)N(C(C)(C)C)CCCC3 [Compound 17k, 9-tert-butyl-3-methoxy-2-pyridin-3-yl-14-(1,3-thiazol-5-yl)-5,6,10,11,12,13-hexahydroazocino[4′,3′:4,5]pyrrolo[2,1-a]isoquinolin-8(9H)-one]",0.355
16,"COc1cc2c(cc1OC(C)C)-c1c(Br)c3c(n1CC2)C(=O)N(C(C)(C)C)CCOC3 [Compound 18d, 9-tert-butyl-3-methoxy-2-isopropoxy-14-bromo-5,6,10,11-tetrahydro-9H-[1,4]oxazocino[7′,6′:4,5]pyrrolo[2,1-a]isoquinolin-8(13H)-one]",126
17,"COc1cc2c(cc1OC(C)C)-c1c(-c3cccnc3)c3c(n1CC2)C(=O)N(C(C)(C)C)CCOC3 [Compound 18e, 9-tert-butyl-3-methoxy-2-isopropoxy-14-pyridin-3-yl-5,6,10,11-tetrahydro-9H-[1,4]oxazocino[7′,6′:4,5]pyrrolo[2,1-a]isoquinolin-8(13H)-one]",63.1
18,"COc1cc2c(cc1OC(C)C)-c1c(-c3ccncc3)c3c(n1CC2)C(=O)N(C(C)(C)C)CCOC3 [Compound 18f, 9-tert-butyl-3-methoxy-2-isopropoxy-14-pyridin-4-yl-5,6,10,11-tetrahydro-9H-[1,4]oxazocino[7′,6′:4,5]pyrrolo[2,1-a]isoquinolin-8(13H)-one]",47.9
19,COc1cc2c(cc1OC(C)C)-c1c(-c3ccc(F)cc3)c3c(n1CC2)C(=O)N(C(C)(C)C)CCOC3 [Compound 18g],20
20,"COc1cc2c(cc1-c1cccnc1)-c1c(Cl)c3c(n1CC2)C(=O)N(C(C)(C)C)CCCC3 [Compound 19f, 9-tert-butyl-3-methoxy-2-pyridin-3-yl-14-chloro-5,6,10,11,12,13-hexahydroazocino[4′,3′:4,5]pyrrolo[2,1-a]isoquinolin-8(9H)-one]",12.3
21,"COc1cc2c(cc1N)-c1c(-c3cccs3)c3c(n1CC2)C(=O)N(C(C)(C)C)CCCC3 [Compound 20b, 9-tert-butyl-14-(thien-2-yl)-2-amino-3-methoxy-5,6,10,11,12,13-hexahydroazocino[4′,3′:4,5]pyrrolo[2,1-a]isoquinolin-8(9H)-one]",39.8
22,"COc1cc2c(cc1-n1cc(CCO)nn1)-c1c(-c3cccs3)c3c(n1CC2)C(=O)N(C(C)(C)C)CCCC3 [Compound 20d, 9-tert-butyl-14-(thien-2-yl)-2-(4-(2-hydroxyethyl)-1H-1,2,3-triazol-1-yl)-3-methoxy-5,6,10,11,12,13-hexahydroazocino[4′,3′:4,5]pyrrolo[2,1-a]isoquinolin-8(9H)-one]",0.589
